Data from US20200392084A1 (priority 2017, published 2020).
Converted amounts (≈) assume the structure as drawn. “Also recorded” adds a separate entry of the source. Read-outs that look alike come from different tables or passages of the source.

How the values were obtained:
[1] = cited from earlier work
[2] = Solvent solubility screen; format: physicochemical; conditions: thermodynamic from solid
[3] = pKa determination (UV-metric); format: physicochemical; conditions: 0.15 M KCl
[4] = logP determination (pH-metric); format: physicochemical; conditions: 24.9-25.0 °C, 0.15M KCl
[5] = Stability assessment of diethylamine salt (Example 6); format: physicochemical
[6] = for hygroscopicity: Example 4; for moisture absorbed: at/up to 95% RH
[7] = 50° C./75% RH, t=5 days
[8] = at 90% RH, 25° C.; listed as salt from diethylamine
[9] = slurried in deionised water, ambient temperature, ca. 24 hrs
[10] = H2O/acetone, ca. 12 hrs
[11] = Forced degradation studies (Example 7)
[12] = 25° C./60% RH, 1 month (Day 35)
[13] = 25° C./60% RH, 3 months (Day 96)
[14] = 40° C./75% RH, 1 month (Day 35)
[15] = 40° C./75% RH, 3 months (Day 96)
[16] = Hydrolytic (humidity), 55° C./75% RH, solid state, 8 days
[17] = Hydrolytic (humidity), 55° C./75% RH, solid state, 14 days
[18] = Hydrolytic, Acid, 1N HCl, 55° C., 8 days
[19] = Hydrolytic, Acid, 1N HCl, 55° C., 14 days
[20] = Hydrolytic, Base, 1N NaOH, 55° C., 8 days
[21] = Hydrolytic, Base, 1N NaOH, 55° C., 14 days
[22] = Oxidative, 3% H2O2, ambient temperature, 8 days
[23] = Photolytic Control (dark control in photochamber), 2X ICH
[24] = Photolytic Control (dark control in photochamber), 3X ICH
[25] = Photolytic, photochamber 25° C., solid state, 2X ICH
[26] = Photolytic, photochamber 25° C., solid state, 3X ICH
[27] = Solution Control (water, 55° C.), 8 days
[28] = Solution Control (water, 55° C.), 14 days
[29] = Solution Control (water, ambient), 8 days
[30] = Solution Control (water, ambient), 14 days
[31] = Thermolytic, 85° C., ambient humidity, solid state, 8 days
[32] = Thermolytic, 85° C., ambient humidity, solid state, 14 days

NCCCC[C@H](N)C(=O)O.O=C(O)c1cc(/N=N/c2ccc(S(=O)(=O)Nc3ccccn3)cc2)ccc1O [L-Lysine Salt, sulfasalazine L-lysine (1:1) salt]
Post-agitation pH (pH 1): 1.91 | Pre-agitation pH (pH 1): 0.76 | Post-agitation pH (pH 4.5): 5.63 | Pre-agitation pH (pH 4.5): 4.70 | Post-agitation pH (pH 6.8): 7.17 | Pre-agitation pH (pH 6.8): 6.99

Nc1ccc(S(=O)(=O)Nc2ccccn2)cc1 [Sulfapyridine, sulfapyridine]
allergic reactions ([1]; of recipients): 3-8%

O=C(O)c1cc(/N=N/c2ccc(S(=O)(=O)Nc3ccccn3)cc2)ccc1O [Sulfasalazine]
solubility ([2]; 1,4-dioxane, 40 °C, organic solvent or mixture, 1,4-Dixoane, read-out: Approx. Solubility): < 5000 µg/mL | solubility ([2]; 1-butanol, 40 °C, organic solvent or mixture, read-out: Approx. Solubility): < 5000 µg/mL | solubility ([2]; 1-propanol, 40 °C, organic solvent or mixture, read-out: Approx. Solubility): < 5000 µg/mL | solubility ([2]; 2-propanol, 40 °C, organic solvent or mixture, read-out: Approx. Solubility): < 5000 µg/mL | solubility ([2]; 2-propanol/water (50:50), 40 °C, aqueous with cosolvent or surfactant or cyclodextrin, read-out: Approx. Solubility): < 5000 µg/mL | solubility ([2]; 40 °C, organic solvent or mixture, all solvents of the 24-solvent screen except DMF and THF, read-out: solubility values): < 5000 µg/mL | solubility ([2]; acetone, 40 °C, organic solvent or mixture, read-out: Approx. Solubility): < 5000 µg/mL | solubility ([2]; acetone/water (50:50), 40 °C, aqueous with cosolvent or surfactant or cyclodextrin, read-out: Approx. Solubility): < 5000 µg/mL | solubility ([2]; acetonitrile, 40 °C, organic solvent or mixture, read-out: Approx. Solubility): < 5000 µg/mL | solubility ([2]; acetonitrile/water (50:50), 40 °C, aqueous with cosolvent or surfactant or cyclodextrin, read-out: Approx. Solubility): < 5000 µg/mL | solubility ([2]; dichloromethane, 40 °C, organic solvent or mixture, read-out: Approx. Solubility): < 5000 µg/mL | solubility ([2]; dimethylformamide, organic solvent or mixture, read-out: Approx. Solubility): > 100000 µg/mL | solubility ([2]; ethanol, 40 °C, organic solvent or mixture, read-out: Approx. Solubility): < 5000 µg/mL | solubility ([2]; ethyl acetate, 40 °C, organic solvent or mixture, read-out: Approx. Solubility): < 5000 µg/mL | solubility ([2]; ethyl formate, 40 °C, organic solvent or mixture, read-out: Approx. Solubility): < 5000 µg/mL | solubility ([2]; heptane, 40 °C, organic solvent or mixture, Hepatane, read-out: Approx. Solubility): < 5000 µg/mL | solubility ([2]; isobutyl acetate, 40 °C, organic solvent or mixture, read-out: Approx. Solubility): < 5000 µg/mL | solubility ([2]; isopropyl acetate, 40 °C, organic solvent or mixture, read-out: Approx. Solubility): < 5000 µg/mL | solubility ([2]; methanol, 40 °C, organic solvent or mixture, read-out: Approx. Solubility): < 5000 µg/mL | solubility ([2]; methanol/water (50:50), 40 °C, aqueous with cosolvent or surfactant or cyclodextrin, read-out: Approx. Solubility): < 5000 µg/mL | solubility ([2]; methyl ethyl ketone, 40 °C, organic solvent or mixture, Methylethyl Ketone, read-out: Approx. Solubility): < 5000 µg/mL | solubility ([2]; nitromethane, 40 °C, organic solvent or mixture, read-out: Approx. Solubility): < 5000 µg/mL | solubility ([2]; tetrahydrofuran, organic solvent or mixture, read-out: Approx. Solubility): 10000 µg/mL (≈ 25.1 mM) | solubility ([2]; toluene, 40 °C, organic solvent or mixture, read-out: Approx. Solubility): < 5000 µg/mL | solubility ([2]; water, 40 °C, water, read-out: Approx. Solubility): < 5000 µg/mL | pKa ([3]; Type Acid (first acidic group), 25.0 °C): 2.29 | pKa ([3]; Type Acid (second acidic group), 25.0-25.1 °C): 11 | pKa ([3]; Type Base (pyridine), 25.0-25.1 °C): ~8.05 | LogP ([4]; Cationic species): 3.73 ± 0.01 | LogP ([4]; Zwitterionic species): 0.02 ± 0.03 | Thermodynamic solubility, Concentration (pH 1): Less than the limit | Thermodynamic solubility, Concentration (pH 4.5): Less than the limit | Thermodynamic solubility, Concentration (pH 6.8): Less than the limit | Significant side effects occur in ([1]; of people): about 25% | solubility (physchem; acetone, organic solvent or mixture): 1100 µg/mL (≈ 2.76 mM) | solubility (physchem; acetonitrile, organic solvent or mixture): 300 µg/mL (≈ 0.753 mM) | solubility (physchem; ethanol, organic solvent or mixture): 500 µg/mL (≈ 1.26 mM) | solubility (physchem; ethyl acetate, organic solvent or mixture): 400 µg/mL (≈ 1 mM) | solubility (physchem; isopropyl alcohol, organic solvent or mixture): 500 µg/mL (≈ 1.26 mM) | solubility (physchem; methanol, organic solvent or mixture): 900 µg/mL (≈ 2.26 mM) | solubility (physchem; methyl ethyl ketone, organic solvent or mixture): 900 µg/mL (≈ 2.26 mM) | solubility (physchem; methyl tert-butyl ether, organic solvent or mixture): 300 µg/mL (≈ 0.753 mM) | solubility (physchem; water): 400 µg/mL (≈ 1 mM)

CCNCC.O=C(O)c1cc(/N=N/c2ccc(S(=O)(=O)Nc3ccccn3)cc2)ccc1O [diethylamine salt Form A, sulfasalazine diethylamine salt Form A]
Appearance [5, 12]: Dark Orange | Assay (Anhydrous, Solvent Free) [5, 12]: 97.2% (w/w %) | Total Impurities [5, 12]: 0.87% | Water Content [5, 12]: 0.8% (w/w %) | XRPD (Conforms to Form A) [5, 12]: Conforms to | Appearance [5, 13]: Dark Orange | Assay (Anhydrous, Solvent Free) [5, 13]: 95.9% (w/w %) | Total Impurities [5, 13]: 0.76% | Water Content [5, 13]: 0.7% (w/w %) | XRPD (Conforms to Form A) [5, 13]: Conforms to | Appearance [5, 14]: Dark Orange | Assay (Anhydrous, Solvent Free) [5, 14]: 97.9% (w/w %) | Total Impurities [5, 14]: 0.87% | Water Content [5, 14]: 1.1% (w/w %) | XRPD (Conforms to Form A) [5, 14]: Conforms to | Appearance [5, 15]: Dark Orange | Assay (Anhydrous, Solvent Free) [5, 15]: 96.5% (w/w %) | Total Impurities [5, 15]: 0.77% | Water Content [5, 15]: 1.1% (w/w %) | XRPD (Conforms to Form A) [5, 15]: Conforms to | Appearance ([5]; T = 0 (Day 0)): Dark Orange | Assay (Anhydrous, Solvent Free) ([5]; T = 0 (Day 0)): 99.6% (w/w %) | Total Impurities ([5]; T = 0 (Day 0)): 0.73% | Water Content ([5]; T = 0 (Day 0)): 0.4% (w/w %) | XRPD (Conforms to Form A) ([5]; T = 0 (Day 0)): Conforms to | hygroscopicity [6]: slightly hygroscopic | moisture absorbed [6]: more than 1 wt % | stability [7]: no evidence of degradation

NC(CO)(CO)CO.O=C(O)c1cc(/N=N/c2ccc(S(=O)(=O)Nc3ccccn3)cc2)ccc1O [tromethamine salt Form A, sulfasalazine tromethamine (1:1) salt form (Form A)]
hygroscopicity [6]: hygroscopic | moisture absorbed [6]: over 8 wt %

sulfasalazine diethylamine (1:1) salt [Diethylamine Salt]
DVS mass uptake [8]: 1.0% | Salt disproportionation, XRPD [9]: Small change | Hydration studies, XRPD ([10]; High water activity (0.790)): no solid could be obtained | Hydration studies, XRPD ([10]; Low water activity (0.281)): slight changes; also recorded: Small change | Hydration studies, XRPD ([10]; Medium water activity (0.572)): slight changes; also recorded: Small change | % Change [11, 16]: 0.11% | Area % (main band) [11, 16]: 98.97% | % Change [11, 17]: −0.02% | Area % (main band) [11, 17]: 99.10% | degradation observed ([11]; Hydrolytic (humidity), 75% RH, 55° C., 14 days): Minimal degradation | Peak Purity ([11]; Hydrolytic (humidity), 14 days): Pass | % Change [11, 18]: −0.19% | Area % (main band) [11, 18]: 99.03% | % Change [11, 19]: −0.25% | Area % (main band) [11, 19]: 98.93% | degradation observed [11, 19]: Minimal degradation | Peak Purity ([11]; Hydrolytic, Acid, 14 days): Pass | % Change [11, 20]: −0.19% | Area % (main band) [11, 20]: 99.03% | % Change [11, 21]: −0.25% | Area % (main band) [11, 21]: 98.93% | degradation observed [11, 21]: Minimal degradation | Peak Purity ([11]; Hydrolytic, Base, 14 days): Pass | % Change [11, 22]: 1.36% | Area % (main band) [11, 22]: 97.52% | Area % (main band) ([11]; Oxidative, 3% H2O2, ambient temperature, 14 days): 97.30% | Peak Purity ([11]; Oxidative, 14 days): Pass | % Change [11, 23]: −0.05% | Area % (main band) [11, 23]: 99.13% | % Change [11, 24]: −0.05% | Area % (main band) [11, 24]: 99.13% | Peak Purity ([11]; Photolytic, 3X ICH): Pass | degradation observed ([11]; Photolytic, 3× ICH exposure): Minimal degradation | % Change [11, 25]: 0.42% | Area % (main band) [11, 25]: 98.71% | % Change [11, 26]: 0.10% | Area % (main band) [11, 26]: 99.03% | Area % (main band) ([11]; Solid Control (unstressed), 0 days): 99.08% | % Change [11, 27]: 0.24% | Area % (main band) [11, 27]: 98.84% | % Change [11, 28]: 0.39% | Area % (main band) [11, 28]: 98.69% | % Change [11, 29]: 0.20% | Area % (main band) [11, 29]: 98.88% | % Change [11, 30]: 0.20% | Area % (main band) [11, 30]: 98.88% | degradation observed ([11]; Thermolytic, 80° C., 14 days): Minimal degradation | % Change [11, 31]: 0.12% | Area % (main band) [11, 31]: 98.96% | % Change [11, 32]: 0.05% | Area % (main band) [11, 32]: 99.03% | Peak Purity ([11]; Thermolytic, 14 days): Pass
